Source: the NIST ThermoML archive (doi:10.1021/acs.jced.8b00202)

Conditions: Liquid, Frequency=8 MHz, Dual path-length method

CC(C)C [2-methylpropane]
Conditions	speed of sound [m/s]
199.99 K, 409.39 kPa	1393.6
199.99 K, 599.71 kPa	1394.9
199.99 K, 1103.6 kPa	1398.1
199.99 K, 2104.3 kPa	1404.5
199.99 K, 3104.9 kPa	1410.8
199.99 K, 4105.7 kPa	1417.1
199.99 K, 5106.3 kPa	1423.3
199.99 K, 6107 kPa	1429.4
199.99 K, 7107.8 kPa	1435.5
199.99 K, 8108.5 kPa	1441.5
199.99 K, 9109.1 kPa	1447.5
199.99 K, 10110 kPa	1453.4
199.99 K, 12612 kPa	1467.8
199.99 K, 15113 kPa	1482
199.99 K, 17615 kPa	1495.8
199.99 K, 20117 kPa	1509.3
199.99 K, 25120 kPa	1535.6
199.99 K, 30124 kPa	1560.8
199.99 K, 35128 kPa	1585.2
199.99 K, 40131 kPa	1608.7
199.99 K, 45134 kPa	1631.5
199.99 K, 50138 kPa	1653.5
199.99 K, 60145 kPa	1695.8
199.99 K, 70152 kPa	1735.8
199.99 K, 80158 kPa	1773.8
200 K, 90166 kPa	1810.1
200 K, 100173 kPa	1844.9
220 K, 1103.2 kPa	1276.9
220 K, 2103.8 kPa	1284.3
220 K, 3102.9 kPa	1291.5
220 K, 3104.4 kPa	1291.5
220 K, 4105.1 kPa	1298.6
220 K, 5105.2 kPa	1305.7
220 K, 6106 kPa	1312.7
220 K, 7106.6 kPa	1319.5
220 K, 8107.3 kPa	1326.3
220 K, 9108 kPa	1333
220 K, 10109 kPa	1339.7
220 K, 10110 kPa	1339.7
220 K, 12610 kPa	1356
220 K, 15112 kPa	1371.8
220 K, 17614 kPa	1387.2
220 K, 20116 kPa	1402.2
220 K, 20117 kPa	1402.2
220 K, 25119 kPa	1431.2
220 K, 30123 kPa	1459
220 K, 30124 kPa	1459
220 K, 35126 kPa	1485.6
220 K, 40130 kPa	1511.2
220 K, 40131 kPa	1511.2
220 K, 45134 kPa	1535.8
220 K, 50137 kPa	1559.7
220 K, 60144 kPa	1605.2
220 K, 70151 kPa	1648
220 K, 80158 kPa	1688.5
220 K, 90165 kPa	1727
220 K, 100172 kPa	1763.8
240 K, 402.14 kPa	1153
240 K, 402.77 kPa	1153
240 K, 602.82 kPa	1154.8
240 K, 1103.6 kPa	1159
240 K, 2103.9 kPa	1167.5
240 K, 2104.3 kPa	1167.5
240 K, 3104.9 kPa	1175.8
240 K, 4105.7 kPa	1184
240 K, 5106.3 kPa	1192.1
240 K, 6107.2 kPa	1200
240 K, 7108 kPa	1207.8
240 K, 8108.1 kPa	1215.5
240 K, 8109.3 kPa	1215.5
240 K, 9110.1 kPa	1223.1
240 K, 10111 kPa	1230.6
240 K, 12613 kPa	1248.8
240 K, 15113 kPa	1266.5
240 K, 15114 kPa	1266.5
240 K, 17616 kPa	1283.7
240 K, 20118 kPa	1300.3
240 K, 25121 kPa	1332.3
240 K, 30124 kPa	1362.6
240 K, 30125 kPa	1362.6
240 K, 35128 kPa	1391.6
240 K, 40132 kPa	1419.3
240 K, 45135 kPa	1445.9
240 K, 50139 kPa	1471.5
240 K, 60146 kPa	1520.1
240 K, 70153 kPa	1565.7
240 K, 80160 kPa	1608.6
240 K, 90167 kPa	1649.3
240 K, 100174 kPa	1688
259.99 K, 8108.1 kPa	1108.7
259.99 K, 15113 kPa	1166
259.99 K, 30123 kPa	1271.7
260 K, 402.73 kPa	1036.8
260 K, 405.47 kPa	1036.7
260 K, 607.87 kPa	1038.8
260 K, 1106.4 kPa	1043.8
260 K, 2104 kPa	1053.6
260 K, 2107.1 kPa	1053.6
260 K, 3107.8 kPa	1063.2
260 K, 4108.4 kPa	1072.7
260 K, 5109.1 kPa	1081.9
260 K, 6109.7 kPa	1091
260 K, 7111 kPa	1099.9
260 K, 8111.7 kPa	1108.6
260 K, 9112.4 kPa	1117.2
260 K, 10113 kPa	1125.7
260 K, 12615 kPa	1146.2
260 K, 15116 kPa	1166
260 K, 17618 kPa	1185
260 K, 20120 kPa	1203.5
260 K, 25123 kPa	1238.6
260 K, 30127 kPa	1271.7
260 K, 35130 kPa	1303.1
260 K, 40134 kPa	1333
260 K, 45137 kPa	1361.5
260 K, 50140 kPa	1388.9
260 K, 60147 kPa	1440.6
260 K, 70154 kPa	1488.7
260 K, 80161 kPa	1533.9
260 K, 90168 kPa	1576.6
260 K, 100175 kPa	1617.2
280 K, 402.43 kPa	921.86
280 K, 602.22 kPa	924.25
280 K, 606.25 kPa	924.3
280 K, 1103.2 kPa	930.19
280 K, 2103.9 kPa	941.79
280 K, 3104.4 kPa	953.08
280 K, 4105.1 kPa	964.08
280 K, 5105.7 kPa	974.8
280 K, 6106.3 kPa	985.26
280 K, 7107 kPa	995.5
280 K, 8107.9 kPa	1005.5
280 K, 9108.6 kPa	1015.3
280 K, 10109 kPa	1024.9
280 K, 12611 kPa	1048
280 K, 15113 kPa	1070.1
280 K, 17614 kPa	1091.3
280 K, 20116 kPa	1111.6
280 K, 25119 kPa	1150.1
280 K, 30123 kPa	1186.1
280 K, 35126 kPa	1220
280 K, 40130 kPa	1252.1
280 K, 45133 kPa	1282.6
280 K, 50137 kPa	1311.8
280 K, 60144 kPa	1366.4
280 K, 70151 kPa	1417.1
280 K, 80158 kPa	1464.6
280 K, 90164 kPa	1509.1
280 K, 100171 kPa	1551.2
299.99 K, 3104.6 kPa	844.54
300 K, 601.97 kPa	809.82
300 K, 1103.1 kPa	817.03
300 K, 1103.4 kPa	817.08
300 K, 4105.3 kPa	857.55
300 K, 5106 kPa	870.14
300 K, 5106.3 kPa	870.12
300 K, 6106.5 kPa	882.34
300 K, 7107.5 kPa	894.17
300 K, 8108.1 kPa	905.68
300 K, 9108.7 kPa	916.91
300 K, 10109 kPa	927.83
300 K, 12611 kPa	954.01
300 K, 15113 kPa	978.78
300 K, 17614 kPa	1002.3
300 K, 20116 kPa	1024.8
300 K, 25120 kPa	1066.9
300 K, 30123 kPa	1105.9
300 K, 35127 kPa	1142.4
300 K, 40131 kPa	1176.7
300 K, 45134 kPa	1209.2
